Source: PubChem BioAssay (NCI)
Where “and” joins values, the source holds several entries; their conditions need not be identical. Identical values can stand only once.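 These data come from cells grown in 96-well plates and exposed to compound for 48 hours at five concentrations. GI50 is the concentration that inhibits growth by half. TGI marks complete inhibition of growth.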 *1 amine or outer side, *2 acyl side, *3 side chain or, on linkers, in order; H or OH if unused. Where a SMILES comes first, the peptide text is derived from it. Bridges are numbered along the chain shown (N, C = ends). [ ]: non-standard residue; d: D form. The star is where a group is joined. Phe(3,5-F2) = N[C@@H](Cc1cc(F)cc(F)c1)C(=O)O; Pro(4R-Me) = C[C@H]1CN[C@H](C(=O)O)C1; aThr = C[C@H](O)[C@H](N)C(=O)O; Pip = O=C(O)[C@@H]1CCCCN1; X10 = Fc1cc(C2CC2)ccc1N*; CO = O=C([*:1])[*:2]

Columns and labels:
Assay in all cases: NCI-60 cell line screen, 48 h
SF-268 CNS = tested on: SF-268 CNS
CAKI-1 renal = tested on: CAKI-1 renal
SK-OV-3 ovarian = tested on: SK-OV-3 ovarian
COLO 205 colon = tested on: COLO 205 colon
BT-549 breast = tested on: BT-549 breast
SF-539 CNS = tested on: SF-539 CNS
NCI/ADR-RES ovarian = tested on: NCI/ADR-RES ovarian
HT29 colon = tested on: HT29 colon
SN12C renal = tested on: SN12C renal
LOX IMVI melanoma = tested on: LOX IMVI melanoma

SMILES | GI50 (SF-268 CNS) | TGI (SF-268 CNS) | GI50 (CAKI-1 renal) | TGI (CAKI-1 renal) | GI50 (SK-OV-3 ovarian) | TGI (SK-OV-3 ovarian) | GI50 (COLO 205 colon) | TGI (COLO 205 colon) [µM] | GI50 (BT-549 breast) | TGI (BT-549 breast) | GI50 (SF-539 CNS) | TGI (SF-539 CNS) [µM] | GI50 (NCI/ADR-RES ovarian) | TGI (NCI/ADR-RES ovarian) | GI50 (HT29 colon) | TGI (HT29 colon) | GI50 (SN12C renal) | TGI (SN12C renal) | GI50 (LOX IMVI melanoma) | TGI (LOX IMVI melanoma)
C[C@@H]1C[C@H]2C(=O)O[C@@H](C)[C@H](NC(=O)[C@H](Cc3cc(F)cc(F)c3)NC(=O)Nc3ccc(C4CC4)cc3F)C(=O)N3CCC[C@H]3C(=O)N3CCCC[C@H]3C(=O)N[C@@H](C)C(=O)N2C1 ({X10-CO}-[Phe(3,5-F2)][aThr]P[Pip]A[Pro(4R-Me)]; ester 2-C) | 0.049 µM | > 46.9 µM | 0.04 µM | 10.3 µM | 0.0504 µM | 16 µM | 0.0351 µM | 1.19 | 0.0588 µM | > 22.4 µM | 0.0752 µM | 3.56 | 0.354 µM | 45.6 µM | 0.0496 µM | 7.95 µM | 0.0401 µM | 42.7 µM | 0.0668 µM | 11.5 µM
NC(N)=NS(=O)(=O)c1ccc(Nc2c3ccccc3nc3c(C(=O)NCCO)cccc23)cc1 | 16.3 µM | – | 22.8 µM | – | 51.6 µM | – | 33.6 µM | – | 33.8 µM | – | 29.5 µM | – | 48.7 µM | > 100 µM | 29.7 µM | – | 26.7 µM | – | 28 µM | –
C[C@@H](Oc1cc(-n2cnc3ccc(CN4CCN(C)CC4)cc32)sc1C(N)=O)c1ccccc1C(F)(F)F | 0.0293 µM and 0.0667 µM | 16.3 µM and > 10 µM | 0.337 µM and 0.222 µM | 15.1 µM and > 10 µM | 0.025 µM and 0.0673 µM | 1.67 µM and > 10 µM | < 0.01 µM and 0.00424 µM | 0.699 | 0.0746 µM and 0.139 µM | 15.2 µM and > 10 µM | 0.0369 µM and 0.0302 µM | 2.09 | 0.162 µM and 0.2 µM | 14.3 µM and > 10 µM | < 0.01 µM and 0.00402 µM | 6.51 µM and > 10 µM | 0.116 µM and 0.2 µM | 12.1 µM and > 10 µM | < 0.018 µM and 0.0231 µM | 5.5 µM and > 10 µM
Cc1cc(-c2nc(C(=O)Nc3cc4oc(N5CCOCC5)nc4nc3N3CC[C@@H](O)C3)co2)ccn1 | 61.7 µM | > 100 µM | 17.1 µM | 71.6 µM | 16.6 µM | 66.9 µM | 37.2 µM | > 100 | 33 µM | > 100 µM | 24 µM | > 100 | > 100 µM | > 100 µM | > 100 µM | > 100 µM | 26 µM | > 100 µM | 39.9 µM | > 100 µM
O=[N+]([O-])c1ccc2c(c1)/C(=N/N=C1c3ccccc3Cc3ccccc31)c1cc([N+](=O)[O-])cc([N+](=O)[O-])c1-2 | – | 5.81 µM | – | 9.36 µM | – | 27.3 µM | – | 9.9 | – | 2.87 µM | – | 7.21 | – | 4.91 µM | – | 4.07 µM | – | 3.23 µM | – | 4.6 µM
Fc1[nH]nc2ccc([C@@H]3Nc4ccc5[nH]ncc5c4[C@H]4C5CCC(C5)[C@@H]34)cc12 (stereo not given in full) | 2.59 µM | 19.8 µM | 0.671 µM | 15 µM | 1.88 µM | 16.5 µM | 0.801 µM | 4.81 | 1.77 µM | 17.8 µM | 0.854 µM | 3.94 | 0.576 µM | 8.99 µM | 0.439 µM | 12.8 µM | 1.99 µM | 18.1 µM | 0.768 µM | 14 µM
OC1CSSC1Cn1cnc2c(Nc3ccc(OCc4cccc(F)c4)c(Cl)c3)ncnc21 (stereo not given) | 0.56 µM | 2.9 µM | 2.2 µM | 6.85 µM | 0.75 µM | 1.75 µM | 2.83 µM | 8.69 | 4.98 µM | 12.1 µM | 1.89 µM | 7.67 | 3.26 µM | 12.3 µM | 0.744 µM | 3.91 µM | 4.02 µM | 9.5 µM | 0.121 µM | 0.499 µM
CCN(CC)N=Nc1c(C(N)=O)n[nH]c1C | – | > 100 µM | – | > 100 µM | – | 97.9 µM | – | > 100 | – | > 100 µM | – | > 100 | – | > 100 µM | – | > 100 µM | – | > 100 µM | – | > 100 µM
COc1cccc(C2c3cc4c(cc3OC(C)(N3CCCC3)C2C)OCO4)c1O (stereo not given) | – | > 72.5 µM | – | 28.7 µM | – | 38.4 µM | – | 10.4 | – | 48.2 µM | – | 21.8 | – | 11.8 µM | – | 12.2 µM | – | 48.6 µM | – | 19.2 µM
FC(F)(F)c1cccc(Nc2nc(-c3ccccc3)nc3ncccc23)c1 | 6.76 µM | 44.3 µM | 3.86 µM | 18.7 µM | 11 µM | 24 µM | 4.07 µM | 13.9 | 5.52 µM | 30.6 µM | 5.06 µM | 17.5 | 4.07 µM | 23.5 µM | 3.15 µM | 12 µM | 5 µM | 64.3 µM | 4.48 µM | 24.6 µM
NS(=O)(=O)OC[C@@H]1C[C@@H](n2ccc3c(NC4CCc5ccccc54)ncnc32)C[C@@H]1O (stereo not given in full) | 0.548 µM | > 100 µM | 0.52 µM | > 100 µM | 9.36 µM | > 93.9 µM | 0.524 µM | > 51.2 | 22.8 µM | > 95.7 µM | 1.28 µM | 20.3 | 68.8 µM | > 100 µM | 0.566 µM | 29.2 µM | 0.614 µM | > 100 µM | 0.0673 µM | 0.436 µM
C[N+](C)(C)CC(=O)N/N=C(/CC(=O)CC(C1=C(O)c2ccccc2OC1)c1ccccc1)C(=O)Nc1cccc(Cl)c1 (stereo not given) | – | > 100 µM | – | > 100 µM | – | > 100 µM | – | > 100 | – | > 100 µM | – | > 100 | – | > 100 µM | – | > 100 µM | – | > 100 µM | – | > 100 µM
OCc1cc2ccccc2c2c3c(ccc12)OCO3 | 33.8 µM | 117 µM | 29.3 µM | 188 µM | 32 µM | 96.6 µM | 18.8 µM | 37.4 | 27.1 µM | 76.3 µM | 23.2 µM | 87 | 29.6 µM | 126 µM | 27.5 µM | 78.6 µM | 29.1 µM | 141 µM | 35.7 µM | 118 µM
CN(C)c1ccc(/C=C\C2=[N+](C)c3ccccc3C2(C)C)cc1 | 0.654 µM | 34 µM | 1.82 µM | 20.6 µM | 0.696 µM | > 24.4 µM | 0.354 µM | 1.65 | 0.423 µM | 11.2 µM | 1.12 µM | 16.7 | 10.6 µM | > 61.6 µM | 0.309 µM | – | 0.351 µM | 14.6 µM | 0.356 µM | 14.6 µM
